Data from patent US9605017B2, “2′, 5′-dideoxy-5-fluorouridine derivatives having cytotoxic activity, a process for the manufacture thereof and application thereof” (ADAM MICKIEWICZ UNIVERSITY, priority 2014, dated 2017).
Converted amounts (≈) assume the structure as drawn. “And” between values parts separate entries of the source, which are not always exact repeats. Equal values may be shown once. Read-outs that look alike come from different tables or passages of the source.

Key:
A549 (lung cancer) = experiment: Cytotoxicity test with sulphorhodamine B, 72 h, A549 line; settings: Homo sapiens
Procedure: (§1) Cytotoxic activity tests were performed using the following cancer cell lines: MCF-7 (breast cancer), HeLa (cervical cancer) A549 (lung cancer) and KB (nasopharynx cancer) obtained from ECACC (European Collection of Cell Cultures).
(§2) Cytotoxicity tests were carried out using a standard procedure with sulphorhodamine B. They involved incubation of the cancer cell lines in the logarithmic growth phase for 72 hours with the compound tested and, subsequently, spectrophotometric determination of the degree of cell growth inhibition using adsorption of a dye (sulphorhodamine B) which binds cellular proteins.
(§3) Cells of the cell line tested in the logarithmic growth phase were seeded onto 24-well plates in a quantity of 20,000 cells/2 mL of the growth medium per well and, subsequently, incubated in an incubator at 37° C., in the 5% CO2 atmosphere for 24 hours.
(§4) Solutions of the test compounds were prepared in DMSO in the following concentration range: 0.05; 0.1; 0.5; 1; 5; 10; 50; 100; 500 μM.
(§5) The cells of the lines tested were treated with the solutions of the test compounds in a laminar-flow chamber which ensured sterile working conditions according to the following procedure: the first three wells were used as a control: they contained 20 μL of DMSO only; successive solutions of the test compound were added to subsequent wells (20 μL), starting with the lowest concentration (three wells for each concentration level). Subsequently, the plates were placed in an incubator for 72 hours.
(§6) After the end of incubation, the adhered cells were fixed by adding 500 μL of cold (4° C.) 50% trichloroacetic acid (TCA) and incubated at 4° C. for 1 hour. Subsequently, each well was rinsed with sterile water and dried. The operation was repeated five times. The fixed cells were stained for 30 minutes by adding 500 μL of 0.4% of a dye solution (sulphorhodamine B) dissolved in 1% acetic acid. Any unbound dye was removed by decanting it from the plate, and the cells were washed 4 times with 1% acetic acid. Subsequently, the plates were dried in air for approx. 5 minutes. Any unbound dye was dissolved by adding 1500 μL of 10 mM Tris-base buffer (trishydroxymethylaminomethane) to each well and shaken using an orbital shaker for 5 minutes. Subsequently, 200 μL of solution from each well was transferred to each of two wells on a new 96-well plate and absorption of the solutions was determined spectrophotometrically at a wavelength of 490-530 nm using a plate reader. Percentage inhibition of cell growth by the test compound was calculated assuming the absorption of the control solution as 100%.
(§7) Cytotoxicity tests for the other compounds and cell lines were performed following an identical procedure.
(§8) Depending on the type of the cell line, the following growth media were used: • the MCF-7 line was grown in Dulbecco's Modified Eagle's Medium (DME) from Sigma (cat. no. D5796) • the HeLa, A549 and KB lines were grown in RPMI-1640 Medium from Sigma (cat. no. R8758).
(§9) IC50 values, being concentration of a compound needed to obtain 50% inhibition of cell growth, were determined for all the derivatives tested.
(§10) To enable comparison, identical tests were performed using known cytotoxic agents: 5-fluoro-2′-deoxyuridine, 5-fluorouracil and 5′-azido-2′,5′-dideoxy-5-fluorouridine.
(§11) The values are average results of three independent determinations.

KB (nasopharynx cancer) = experiment: Cytotoxicity test with sulphorhodamine B, 72 h, KB line; settings: read-out: Cytotoxic activity, IC50 KB (nasopharynx cancer)
Procedure: as §1, §2, §3, §4, §5, §6, §7, §8, §9, §10, §11

MCF-7 (breast cancer) = experiment: Cytotoxicity test with sulphorhodamine B, 72 h, MCF-7 line; settings: for IC50: Homo sapiens; for higher activity than 5AddFU, breast cancer cells: relative to 5AddFU; for higher activity than 5FU, breast cancer cells: relative to 5FU; for higher activity than 5FdU, breast cancer cells: relative to 5FdU
Procedure: as §1, §2, §3, §4, §5, §6, §7, §8, §9, §10, §11

HeLa (cervical cancer) = experiment: Cytotoxicity test with sulphorhodamine B, 72 h, HeLa line; settings: for IC50: Homo sapiens, HeLa; for activity compared to 5FU, cervical cancer cells: relative to 5FU
Procedure: as §1, §2, §3, §4, §5, §6, §7, §8, §9, §10, §11

[1] = tested on: MCF-7, HeLa, A549 and KB cancer cell lines; experiment: Cytotoxic activity tests, overall statement over the four cancer cell lines; settings: in words
Procedure: as §1, §2, §9, §10

[2] = tested on: mouse tumour cells (S-180 line); settings: at concentrations as high as 400 μM; cited from earlier work
[3] = A549, 72 h, read-out: Cytotoxic activity, IC50 A549 (lung cancer)
[4] = A549, read-out: Cytotoxic activity class, A549 (lung cancer)
[5] = MCF7, 72 h, read-out: Cytotoxic activity, IC50 MCF-7 line (breast cancer)
[6] = MCF7, read-out: Cytotoxic activity class, MCF-7 line (breast cancer)
[7] = 72 h, read-out: Cytotoxic activity, IC50 HeLa (cervical cancer)
[8] = read-out: Cytotoxic activity class, HeLa (cervical cancer)

C=CC1C[N@@]2CCC1C[C@@H]2[C@@H](OCc1cn(CC2OC(n3cc(F)c(=O)[nH]c3=O)CC2O)nn1)c1ccnc2ccc(OC)cc12 (stereo partly shown) [PQD5AFU, 5-Fluoro-1-(4-hydroxy-5-{4-[(6-methoxy-quinolin-4-yl)-(5-vinyl-1-aza-bicyclo[2.2.2]oct-2-yl)-methoxymethyl]-[1,2,3]triazol-1-ylmethyl}-tetrahydrofuran-2-yl)-1H-pyrimidine-2,4-dione]
IC50 (A549 (lung cancer); [3]): 19.7 µg/mL and 31.1 µM | IC50 (A549 (lung cancer); [4]): 4 to 30 µg/mL (≈ 6.31 to 47.3 µM) | IC50 (KB (nasopharynx cancer)): 19.5 µg/mL and 30.8 µM | IC50 (MCF-7 (breast cancer); [5]): 16 µg/mL and 25.2 µM | IC50 (MCF-7 (breast cancer); [6]): 4 to 30 µg/mL (≈ 6.31 to 47.3 µM) | IC50 (HeLa (cervical cancer); [7]): 19.1 µg/mL and 30.1 µM | IC50 (HeLa (cervical cancer); [8]): 4 to 30 µg/mL (≈ 6.31 to 47.3 µM)

O=c1[nH]cc(F)c(=O)[nH]1 [5-fluorouracil, reference compound]
IC50 (A549 (lung cancer); [3]): 2.78 µg/mL and 21.4 µM | IC50 (A549 (lung cancer); [4]): < 4 µg/mL | IC50 (KB (nasopharynx cancer)): 2.86 µg/mL and 22 µM | IC50 (MCF-7 (breast cancer); [5]): 2.37 µg/mL and 18.2 µM | IC50 (MCF-7 (breast cancer); [6]): < 4 µg/mL | Cytotoxic activity, overall verbal grade [1]: medium-activity | Cytotoxic activity, overall verbal grade ([1]; listed as 5FU): Medium cytotoxic activity | IC50 (HeLa (cervical cancer); [7]): 2.73 µg/mL and 21 µM | IC50 (HeLa (cervical cancer); [8]): < 4 µg/mL

C=CC1C[N@@]2CCC1C[C@@H]2[C@@H](OCc1cn(CC2OC(n3cc(F)c(=O)[nH]c3=O)CC2O)nn1)c1ccnc2ccccc12 (stereo partly shown) [PCN5AFU, 5-Fluoro-1-(4-hydroxy-5-{4-[quinolin-4-yl-(5-vinyl-1-aza-bicyclo[2.2.2]oct-2-yl)-methoxymethyl]-[1,2,3]triazol-1-ylmethyl}-tetrahydrofuran-2-yl)-1H-pyrimidine-2,4-dione]
IC50 (A549 (lung cancer); [3]): 2.7 µg/mL and 4.47 µM | IC50 (A549 (lung cancer); [4]): < 4 µg/mL | IC50 (KB (nasopharynx cancer)): 2.4 µg/mL and 3.98 µM | IC50 (MCF-7 (breast cancer); [5]): 2.4 µg/mL and 3.98 µM | IC50 (MCF-7 (breast cancer); [6]): < 4 µg/mL | higher activity than 5AddFU, breast cancer cells (MCF-7 (breast cancer)): 3 fold | higher activity than 5FU, breast cancer cells (MCF-7 (breast cancer)): 1.4 fold | higher activity than 5FdU, breast cancer cells (MCF-7 (breast cancer)): 1.6 fold | IC50 (HeLa (cervical cancer); [7]): 2.7 µg/mL and 4.47 µM | IC50 (HeLa (cervical cancer); [8]): < 4 µg/mL | activity compared to 5FU, cervical cancer cells (HeLa (cervical cancer)): comparable activity

O=c1[nH]c(=O)n(C2CC(O)C(Cn3cc(C4C[N@@]5CCC4C[C@H]5[C@H](O)c4ccnc5ccccc45)nn3)O2)cc1F (stereo partly shown) [CD5AFU, 5-Fluoro-1-(4-hydroxy-5-{4-[6-(hydroxy-quinolin-4-yl-methyl)-1-aza-bicyclo[2.2.2]oct-3-yl]-[1,2,3]triazol-1-ylmethyl}-tetrahydrofuran-2-yl)-1H-pyrimidine-2,4-dione]
IC50 (A549 (lung cancer); [3]): 15.2 µg/mL and 27 µM | IC50 (A549 (lung cancer); [4]): 4 to 30 µg/mL (≈ 7.1 to 53.2 µM) | IC50 (KB (nasopharynx cancer)): 15 µg/mL and 26.6 µM | IC50 (MCF-7 (breast cancer); [5]): 11.4 µg/mL and 20.2 µM | IC50 (MCF-7 (breast cancer); [6]): 4 to 30 µg/mL (≈ 7.1 to 53.2 µM) | IC50 (HeLa (cervical cancer); [7]): 13 µg/mL and 23.1 µM | IC50 (HeLa (cervical cancer); [8]): 4 to 30 µg/mL (≈ 7.1 to 53.2 µM)

COc1ccc2nccc([C@H](O)[C@H]3CC4CCN3CC4c3cn(CC4OC(n5cc(F)c(=O)[nH]c5=O)CC4O)nn3)c2c1 (stereo partly shown) [QD5AFU, 5-Fluoro-1-[4-hydroxy-5-(4-{6-[hydroxy-(6-methoxy-quinolin-4-yl)-methyl]-1-aza-bicyclo[2.2.2]oct-3-yl}-[1,2,3]triazol-1-ylmethyl)-tetrahydrofuran-2-yl]-1H-pyrimidine-2,4-dione]
IC50 (A549 (lung cancer); [3]): 8 µg/mL and 13.5 µM | IC50 (A549 (lung cancer); [4]): 4 to 30 µg/mL (≈ 6.74 to 50.5 µM) | IC50 (KB (nasopharynx cancer)): 8.9 µg/mL and 15 µM | IC50 (MCF-7 (breast cancer); [5]): 6.1 µg/mL and 10.3 µM | IC50 (MCF-7 (breast cancer); [6]): 4 to 30 µg/mL (≈ 6.74 to 50.5 µM) | IC50 (HeLa (cervical cancer); [7]): 7.3 µg/mL and 12.3 µM | IC50 (HeLa (cervical cancer); [8]): 4 to 30 µg/mL (≈ 6.74 to 50.5 µM)

O=c1[nH]c(=O)n(C2CC(O)C(Cn3cc(C4CN5CCC4C[C@@H]5[C@@H](O)c4ccnc5ccccc45)nn3)O2)cc1F (stereo partly shown) [CN5AFU, 5-Fluoro-1-(4-hydroxy-5-{4-[6-(hydroxy-quinolin-4-yl-methyl)-1-aza-bicyclo[2.2.2]oct-3-yl]-[1,2,3]triazol-1-ylmethyl}-tetrahydrofuran-2-yl)-1H-pyrimidine-2,4-dione]
IC50 (A549 (lung cancer); [3]): 3.1 µg/mL and 5.5 µM | IC50 (A549 (lung cancer); [4]): < 4 µg/mL | IC50 (KB (nasopharynx cancer)): 2.9 µg/mL and 5.15 µM | IC50 (MCF-7 (breast cancer); [5]): 2.8 µg/mL and 4.97 µM | IC50 (MCF-7 (breast cancer); [6]): < 4 µg/mL | higher activity than 5AddFU, breast cancer cells (MCF-7 (breast cancer)): 3 fold | higher activity than 5FU, breast cancer cells (MCF-7 (breast cancer)): 1.4 fold | higher activity than 5FdU, breast cancer cells (MCF-7 (breast cancer)): 1.6 fold | IC50 (HeLa (cervical cancer); [7]): 3.1 µg/mL and 5.5 µM | IC50 (HeLa (cervical cancer); [8]): < 4 µg/mL | activity compared to 5FU, cervical cancer cells (HeLa (cervical cancer)): comparable activity

O=c1[nH]c(=O)n([C@H]2C[C@H](O)[C@@H](CO)O2)cc1F [5-fluoro-2′-deoxyuridine, reference compound]
IC50 (A549 (lung cancer); [3]): 3.3 µg/mL and 13.4 µM | IC50 (A549 (lung cancer); [4]): < 4 µg/mL | IC50 (KB (nasopharynx cancer)): 3.37 µg/mL and 13.7 µM | IC50 (MCF-7 (breast cancer); [5]): 2.81 µg/mL and 11.4 µM | IC50 (MCF-7 (breast cancer); [6]): < 4 µg/mL | Cytotoxic activity, overall verbal grade [1]: medium-activity | Cytotoxic activity, overall verbal grade ([1]; listed as 5FdU): Medium cytotoxic activity | IC50 (HeLa (cervical cancer); [7]): 3.2 µg/mL and 13 µM | IC50 (HeLa (cervical cancer); [8]): < 4 µg/mL

COc1ccc2nccc([C@@H](O)[C@@H]3CC4CC[N@]3CC4c3cn(CC4OC(n5cc(F)c(=O)[nH]c5=O)CC4O)nn3)c2c1 (stereo partly shown) [QN5AFU, 5-Fluoro-1-[4-hydroxy-5-(4-{6-[hydroxy-(6-methoxy-quinolin-4-yl)-methyl]-1-aza-bicyclo[2.2.2]oct-3-yl}-[1,2,3]triazol-1-ylmethyl)-tetrahydrofuran-2-yl]-1H-pyrimidine-2,4-dione]
IC50 (A549 (lung cancer); [3]): 16 µg/mL and 26.9 µM | IC50 (A549 (lung cancer); [4]): 4 to 30 µg/mL (≈ 6.74 to 50.5 µM) | IC50 (KB (nasopharynx cancer)): 12.6 µg/mL and 21.2 µM | IC50 (MCF-7 (breast cancer); [5]): 12 µg/mL and 20.2 µM | IC50 (MCF-7 (breast cancer); [6]): 4 to 30 µg/mL (≈ 6.74 to 50.5 µM) | IC50 (HeLa (cervical cancer); [7]): 12 µg/mL and 20.2 µM | IC50 (HeLa (cervical cancer); [8]): 4 to 30 µg/mL (≈ 6.74 to 50.5 µM)

[N-]=[N+]=NC[C@H]1O[C@@H](n2cc(F)c(O)nc2=O)C[C@@H]1O [5′-azido-2′,5′-dideoxy-5-fluorouridine, reference compound]
IC50 (A549 (lung cancer); [3]): 7 µg/mL and 25.8 µM | IC50 (A549 (lung cancer); [4]): 4 to 30 µg/mL (≈ 14.7 to 111 µM) | IC50 (KB (nasopharynx cancer)): 7 µg/mL and 25.8 µM | cell growth inhibition [2]: 100% | IC50 (MCF-7 (breast cancer); [5]): 7.4 µg/mL and 27.3 µM | IC50 (MCF-7 (breast cancer); [6]): 4 to 30 µg/mL (≈ 14.7 to 111 µM) | Cytotoxic activity, overall verbal grade ([1]; listed as 5AddFU): Medium cytotoxic activity | IC50 (HeLa (cervical cancer); [7]): 7.8 µg/mL and 28.8 µM | IC50 (HeLa (cervical cancer); [8]): 4 to 30 µg/mL (≈ 14.7 to 111 µM)

C=CC1C[N@@]2CCC1C[C@H]2[C@H](OCc1cn(CC2OC(n3cc(F)c(=O)[nH]c3=O)CC2O)nn1)c1ccnc2ccccc12 (stereo partly shown) [PCD5AFU, 5-Fluoro-1-(4-hydroxy-5-{4-[quinolin-4-yl-(5-vinyl-1-aza-bicyclo[2.2.2]oct-2-yl)-methoxymethyl]-[1,2,3]triazol-1-ylmethyl}-tetrahydrofuran-2-yl)-1H-pyrimidine-2,4-dione]
IC50 (A549 (lung cancer); [3]): 17.8 µg/mL and 29.5 µM | IC50 (A549 (lung cancer); [4]): 4 to 30 µg/mL (≈ 6.63 to 49.7 µM) | IC50 (KB (nasopharynx cancer)): 17.5 µg/mL and 29 µM | IC50 (MCF-7 (breast cancer); [5]): 11.8 µg/mL and 19.6 µM | IC50 (MCF-7 (breast cancer); [6]): 4 to 30 µg/mL (≈ 6.63 to 49.7 µM) | IC50 (HeLa (cervical cancer); [7]): 18.8 µg/mL and 29.8 µM | IC50 (HeLa (cervical cancer); [8]): 4 to 30 µg/mL (≈ 6.63 to 49.7 µM)

C=CC1C[N@@]2CCC1C[C@H]2[C@H](OCc1cn(CC2OC(n3cc(F)c(=O)[nH]c3=O)CC2O)nn1)c1ccnc2ccc(OC)cc12 (stereo partly shown) [PQN5AFU, 5-Fluoro-1-(4-hydroxy-5-{4-[(6-methoxy-quinolin-4-yl)-(5-vinyl-1-aza-bicyclo[2.2.2]oct-2-yl)-methoxymethyl]-[1,2,3]triazol-1-ylmethyl}-tetrahydrofuran-2-yl)-1H-pyrimidine-2,4-dione]
IC50 (A549 (lung cancer); [3]): 29.4 µg/mL and 46.4 µM | IC50 (A549 (lung cancer); [4]): 4 to 30 µg/mL (≈ 6.31 to 47.3 µM) | IC50 (KB (nasopharynx cancer)): 31 µg/mL and 48.9 µM | IC50 (MCF-7 (breast cancer); [5]): 27 µg/mL and 42.6 µM | IC50 (MCF-7 (breast cancer); [6]): 4 to 30 µg/mL (≈ 6.31 to 47.3 µM) | IC50 (HeLa (cervical cancer); [7]): 29 µg/mL and 45.8 µM | IC50 (HeLa (cervical cancer); [8]): 4 to 30 µg/mL (≈ 6.31 to 47.3 µM)
